As a reminder, the IC50 is the concentration needed to halve the response being measured. A word on the inhibition: it is the drop in the measured response relative to a control, in per cent. A higher inhibition goes with strong suppression.

One test has as its system MV4-11 cells. Kind of test: MV4-11 cellular proliferation assay, Assay Format A (CellTiter-Glo, 120 hours). In kind it is cell-based. As to conditions: Homo sapiens, Assay method A, read-out: MV4-11 antiproliferative IC50. The procedure: An MV4-11 proliferation assay was used to test the ability of compounds to reduce cell viability.
After 120 hours of treatment, cells were incubated for 10 min at RT with the CellTiter-Glo (CTG) reagent (G7571, Promega). Measurement of the luminescence signal was performed on a microplate reader (Ensight, PerkinElmer). CTG reagent measures the amount of ATP, which is directly proportional to the number of cells, to determine the number of viable cells in culture.
The data were analysed as follows: Data normalization, N(x) = (x−〈cr〉)/(〈sr〉−〈cr〉) × 100 [formula] where x is the measured raw signal value of a well, (cr) is the median of the measured signal values for the Central Reference (DMSO) wells on a plate, (sr) is the median of the measured signal values for the Scale Reference (reference compound) wells on a plate. Curve fitting, S0 + (Sinf −S0)/(1 + (((AC50)/(10^c)))^n) [formula] where the experimental set-up assumes the Hill parameters in certain ranges: S0 ~ Central Reference (CR) from normalization (= Bottom), Sinf ~ Scale Reference (SR) from normalization (= Top), nHill ~ 1, AC50 ~ within the measured concentration range.
Background: Cellular ATP, detected with luciferase, serves as a proxy for viable cell number.

A further test has as its target T1, MLLT1 (Homo sapiens, UniProt Q03111).
T1 construct: endogenous in cells; host or cells: MV4-11 (ATCC CRL-9591)
T1 sequence (Q03111 1-559): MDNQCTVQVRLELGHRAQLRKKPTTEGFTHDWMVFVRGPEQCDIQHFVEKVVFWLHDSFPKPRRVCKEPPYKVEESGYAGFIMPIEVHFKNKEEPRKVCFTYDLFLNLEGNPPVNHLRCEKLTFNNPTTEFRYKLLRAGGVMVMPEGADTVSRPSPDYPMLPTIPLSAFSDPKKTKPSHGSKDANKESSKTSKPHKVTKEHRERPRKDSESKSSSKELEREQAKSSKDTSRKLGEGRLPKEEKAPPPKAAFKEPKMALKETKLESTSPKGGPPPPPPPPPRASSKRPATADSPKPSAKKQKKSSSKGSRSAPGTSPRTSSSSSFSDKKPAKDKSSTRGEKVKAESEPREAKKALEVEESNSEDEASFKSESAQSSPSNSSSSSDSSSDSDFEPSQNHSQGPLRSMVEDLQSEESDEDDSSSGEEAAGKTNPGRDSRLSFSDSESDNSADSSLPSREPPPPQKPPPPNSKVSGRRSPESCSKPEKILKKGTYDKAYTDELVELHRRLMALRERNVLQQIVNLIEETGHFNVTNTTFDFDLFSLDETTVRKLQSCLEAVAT
Kind of test: MLLT1 degradation assay (JESS automated chemiluminescent detection) in MV4-11 cells. As to conditions: 24h, with respect to DMSO control. In kind it is cell-based. A digest of the protocol:
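MV4-11 cells were treated with 1000, 100 or 10 nM compound (0.1% DMSO) for 24 h at 37 °C. Lysates (4 µg protein) were probed for MLLT1 and GAPDH by JESS capillary chemiluminescence. Degradation was calculated from band peak areas versus DMSO control and binned into categories A–D.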

Bounds are passed on as bounds.

With `[2H]C([2H])([2H])N1CCC[C@@H]1c1cc2cnc(NC(=O)c3ccc4c(C)nn(CCCCCCCC#Cc5cccc6c5CN(C5CCC(=O)NC5=O)C6=O)c4c3)cc2[nH]1` (stereo partly drawn) [Example 44, 1-(9-(2-(2,6-dioxopiperidin-3-yl)-1-oxoisoindolin-4-yl)non-8-yn-1-yl)-3-methyl-N-(2-((R)-1-(methyl-d3)pyrrolidin-2-yl)-1H-pyrrolo[3,2-c]pyridin-6-yl)-1H-indazole-6-carboxamide], the IC50 in the test with MV4-11 cells amounted to 5 nM. Also, on MLLT1, the inhibition at 0.01 µM was in the range of 50 to 75%, the inhibition at 0.1 µM is not below 75% and the inhibition at 1 µM is not below 75%.

Take `Cc1nn(CCCCCCCCNc2ccc3c(c2)C(=O)N(C2CCC(=O)NC2=O)C3=O)c2cc(C(=O)Nc3cc4[nH]c([C@@H]5CCCN5C)cc4cn3)ccc12` (stereo partly drawn) [Example 15, 1-(8-{[2-(2,6-dioxopiperidin-3-yl)-1,3-dioxoisoindol-5-yl]amino}octyl)-3-methyl-N-{2-[(2S)-1-methylpyrrolidin-2-yl]-1H-pyrrolo[3,2-c]pyridin-6-yl}indazole-6-carboxamide]: the IC50 in the test on MV4-11 cells came to 12 nM. At MLLT1, this molecule displayed an inhibition at 0.01 µM of less than 25%, an inhibition at 0.1 µM not below 75% and an inhibition at 1 µM not below 75%.

As to `Cc1nn(CCOCCOCCNc2cccc3c2C(=O)N(C2CCC(=O)NC2=O)C3=O)c2cc(C(=O)Nc3cc4[nH]c([C@H]5CCCN5C)cc4cn3)ccc12` (stereo partly drawn) [Example 25, 1-(2-(2-(2-((2-(2,6-dioxopiperidin-3-yl)-1,3-dioxoisoindolin-4-yl)amino)ethoxy)ethoxy)ethyl)-3-methyl-N-(2-((R)-1-methylpyrrolidin-2-yl)-1H-pyrrolo[3,2-c]pyridin-6-yl)-1H-indazole-6-carboxamide], the IC50 in the test with MV4-11 cells worked out at 11 nM. On MLLT1, this molecule had an inhibition at 0.1 µM not below 75% and an inhibition at 1 µM not below 75%.

Turning to `Cc1nn(CCCCNc2cccc3c2C(=O)N(C2CCC(=O)NC2=O)C3=O)c2cc(C(=O)Nc3cc4[nH]c([C@H]5CCCN5C)cc4cn3)ccc12` (stereo partly drawn) [Example 21, 1-(4-((2-(2,6-dioxopiperidin-3-yl)-1,3-dioxoisoindolin-4-yl)amino)butyl)-3-methyl-N-(2-((R)-1-methylpyrrolidin-2-yl)-1H-pyrrolo[3,2-c]pyridin-6-yl)-1H-indazole-6-carboxamide], in the test with MV4-11 cells, the IC50 was 11 nM. On MLLT1, this molecule yielded an inhibition at 0.01 µM not below 75%, an inhibition at 0.1 µM not below 75% and an inhibition at 1 µM not below 75%.

`Cc1nn(CCCC#Cc2cccc3c2CN(C2CCC(=O)NC2=O)C3=O)c2cc(C(=O)Nc3cc4[nH]c([C@H]5CCCN5C)cc4cn3)ccc12` (stereo partly drawn) [Example 32, 1-(5-(2-(2,6-dioxopiperidin-3-yl)-1-oxoisoindolin-4-yl)pent-4-yn-1-yl)-3-methyl-N-(2-((R)-1-methylpyrrolidin-2-yl)-1H-pyrrolo[3,2-c]pyridin-6-yl)-1H-indazole-6-carboxamide]: in the test on MV4-11 cells, the IC50 was 15 nM. Also, on MLLT1, the inhibition at 0.01 µM is 50 to 75%, the inhibition at 0.1 µM was not below 75% and the inhibition at 1 µM fell in the range of 50 to 75%.

In the case of `Cc1nn(CCCCCCCC#Cc2cccc3c2CN(C2CCC(=O)NC2=O)C3=O)c2cc(C(=O)Nc3cc4[nH]c([C@H]5CCCN5C)cc4cn3)ccc12` (mixture of isomers) [Example 1, 1-(9-(2-(2,6-dioxopiperidin-3-yl)-1-oxoisoindolin-4-yl)non-8-yn-1-yl)-3-methyl-N-(2-((R)-1-methylpyrrolidin-2-yl)-1H-pyrrolo[3,2-c]pyridin-6-yl)-1H-indazole-6-carboxamide], in the test on MV4-11 cells, the IC50 came out at 4 nM. Further, on MLLT1, the inhibition at 0.01 µM is not below 75%, the inhibition at 0.1 µM was not below 75% and the inhibition at 1 µM was not below 75%.

Regarding `Cc1nn(CCCCCC#Cc2cccc3c2CN(C2CCC(=O)NC2=O)C3=O)c2cc(C(=O)Nc3cc4[nH]c([C@H]5CCCN5C)cc4cn3)ccc12` (stereo partly drawn) [Example 30, 1-(7-(2-(2,6-dioxopiperidin-3-yl)-1-oxoisoindolin-4-yl)hept-6-yn-1-yl)-3-methyl-N-(2-((R)-1-methylpyrrolidin-2-yl)-1H-pyrrolo [3,2-c]pyridin-6-yl)-1H-indazole-6-carboxamide], the IC50 in the test on MV4-11 cells turned out to be 6 nM. In addition, at MLLT1, the inhibition at 0.01 µM was not below 75%, the inhibition at 0.1 µM was not below 75% and the inhibition at 1 µM is not below 75%.

Take `Cc1nn(CCCCCCNc2cccc3c2C(=O)N(C2CCC(=O)NC2=O)C3=O)c2cc(C(=O)Nc3cc4[nH]c([C@H]5CCCN5C)cc4cn3)ccc12` (stereo partly drawn) [Example 22, 1-(6-{[2-(2,6-dioxopiperidin-3-yl)-1,3-dioxoisoindol-4-yl]amino}hexyl)-3-methyl-N-{2-[(2R)-1-methylpyrrolidin-2-yl]-1H-pyrrolo[3,2-c]pyridin-6-yl}indazole-6-carboxamide]: the IC50 in the test with MV4-11 cells came to 8 nM. At MLLT1, this molecule registered an inhibition at 0.01 µM not below 75%, an inhibition at 0.1 µM not below 75% and an inhibition at 1 µM not below 75%.

Take `Cc1nn(CCCCCCC#Cc2cccc3c2CN(C2CCC(=O)NC2=O)C3=O)c2cc(C(=O)Nc3cc4[nH]c([C@H]5CCCN5C)cc4cn3)ccc12` (stereo partly drawn) [Example 45, 1-(8-(2-(2,6-dioxopiperidin-3-yl)-1-oxoisoindolin-4-yl)oct-7-yn-1-yl)-3-methyl-N-(2-((R)-1-methylpyrrolidin-2-yl)-1H-pyrrolo[3,2-c]pyridin-6-yl)-1H-indazole-6-carboxamide]: the IC50 in the test on MV4-11 cells was found to be 10 nM. Besides, on MLLT1, the inhibition at 0.01 µM was not below 75%, the inhibition at 0.1 µM was not below 75% and the inhibition at 1 µM is not below 75%.

For `Cc1nn(CCCCCCCC#Cc2cccc(N3CCC(=O)NC3=O)c2F)c2cc(C(=O)Nc3cc4[nH]c([C@H]5CCCN5C)cc4cn3)ccc12` [Example 63, (R)-1-(9-(3-(2,4-dioxotetrahydropyrimidin-1(2H)-yl)-2-fluorophenyl)non-8-yn-1-yl)-3-methyl-N-(2-(1-methylpyrrolidin-2-yl)-1H-pyrrolo [3,2-c]pyridin-6-yl)-1H-indazole-6-carboxamide], on MLLT1, the inhibition at 0.01 µM is less than 25%, the inhibition at 0.1 µM lay in the range of 50 to 75% and the inhibition at 1 µM was not below 75%.

On MLLT1, `Cc1nn(CCCCCCCC#Cc2cccc(C(=O)N[C@H]3CCC(=O)NC3=O)c2F)c2cc(C(=O)Nc3cc4[nH]c([C@H]5CCCN5C)cc4cn3)ccc12` [Example 51, 1-(9-(3-(((S)-2,6-dioxopiperidin-3-yl)carbamoyl)-2-fluorophenyl)non-8-yn-1-yl)-3-methyl-N-(2-((R)-1-methylpyrrolidin-2-yl)-1H-pyrrolo[3,2-c]pyridin-6-yl)-1H-indazole-6-carboxamide] had an inhibition at 0.01 µM of 25 to 50%, an inhibition at 0.1 µM of 50 to 75% and an inhibition at 1 µM not below 75%.

At MLLT1, `Cc1nn(CCCCCCCC#Cc2cccc3c2CN(C2CCC(=O)NC2=O)C3=O)c2cc(C(=O)Nc3cc4[nH]c([C@H]5CCCN5C)cc4cn3)c(F)cc12` (stereo partly drawn) [Example 58, 1-(9-(2-(2,6-dioxopiperidin-3-yl)-1-oxoisoindolin-4-yl)non-8-yn-1-yl)-5-fluoro-3-methyl-N-(2-((R)-1-methylpyrrolidin-2-yl)-1H-pyrrolo[3,2-c]pyridin-6-yl)-1H-indazole-6-carboxamide] gave an inhibition at 0.01 µM not below 75%, an inhibition at 0.1 µM not below 75% and an inhibition at 1 µM not below 75%.

These data come from EP4667466A1, “PROTAC DEGRADERS OF MLLT1 AND/OR MLLT3” (priority 2024, dated 2025).
